Conditions: Liquid, Vibrating tube method

CCCO [propan-1-ol]
Conditions	mass density [kg/m3]
298.15 K, 110 kPa	799.54
298.15 K, 5270 kPa	803.6
298.15 K, 9870 kPa	807.01
298.15 K, 14700 kPa	810.46
298.15 K, 20530 kPa	814.46
298.15 K, 25030 kPa	817.44
298.15 K, 30100 kPa	820.7
298.15 K, 35010 kPa	823.76
298.15 K, 39560 kPa	826.52
323.15 K, 590 kPa	779.78
323.15 K, 5940 kPa	784.71
323.15 K, 10600 kPa	788.81
323.15 K, 16000 kPa	793.2
323.15 K, 20640 kPa	796.73
323.15 K, 24880 kPa	799.83
323.15 K, 30800 kPa	803.99
323.15 K, 35220 kPa	807.01
323.15 K, 39790 kPa	810.02
348.15 K, 140 kPa	757.11
348.15 K, 5170 kPa	762.68
348.15 K, 10260 kPa	767.5
348.15 K, 15790 kPa	772.52
348.15 K, 20560 kPa	776.41
348.15 K, 24810 kPa	780.32
348.15 K, 29300 kPa	784.09
348.15 K, 35560 kPa	789.01
348.15 K, 39950 kPa	792.23
373.15 K, 360 kPa	733.24
373.15 K, 5480 kPa	739.29
373.15 K, 10290 kPa	745.11
373.15 K, 15700 kPa	750.9
373.15 K, 19960 kPa	755.19
373.15 K, 25170 kPa	760.17
373.15 K, 30510 kPa	765.02
373.15 K, 35920 kPa	769.7
373.15 K, 39780 kPa	772.91
398.15 K, 620 kPa	705.55
398.15 K, 5670 kPa	713.23
398.15 K, 10620 kPa	720.1
398.15 K, 15580 kPa	726.46
398.15 K, 20350 kPa	732.35
398.15 K, 25090 kPa	737.77
398.15 K, 31150 kPa	744.07
398.15 K, 35410 kPa	748.41
398.15 K, 39390 kPa	752.32
423.15 K, 1570 kPa	674.63
423.15 K, 5870 kPa	682.79
423.15 K, 10160 kPa	690.93
423.15 K, 15320 kPa	699.32
423.15 K, 20500 kPa	707.2
423.15 K, 26280 kPa	715.01
423.15 K, 31600 kPa	721.36
423.15 K, 35780 kPa	726.03
423.15 K, 39700 kPa	730.17

Reference: the NIST ThermoML archive (doi:10.1016/j.fluid.2008.03.009)
